Reference: US20120238488A1, “COMPOUNDS AND METHODS FOR TREATING NEOPLASIA” (priority 2009, published 2012)

Experiments:
[1] = test system: 22 different cell lines, nine tumor panels (lung, melanoma, ovary, prostate, CNS, breast, pancreas colon and renal); experiment: SRB assay, all tumor cell line panels (summary statements); assay type: cell-based, human; details: lung, breast, CNS, colon, prostate, ovary, pancreas, kidney and melanoma lines, including a multidrug resistant cell line
Experimental: (§1) SRB assays were performed according to standard National Cancer Institute Guidelines. Briefly, human tumor cells from different cancer panels were seeded into 96 well plates in 100 μL (plating densities ranging from 5-40,000 cells/well depending on the doubling time of individual cell lines) in serum-containing media for twenty-four hours prior to the addition of the compounds to be assayed. After 24 hours, one plate of each cell line was fixed in situ with trichloroacetic acid (TCA). The fixed slides were used to determine the cell population for each cell line at the time of drug addition (Tz). Each compound to be tested was solubilized in DMSO and the desired concentration was then added to the medium and diluted serially 1:10 to provide a total of five or ten drug concentrations plus control (in a final volume of 200 μL). The starting dose before any dilution was 100 uM for all compounds.
(§2) Following drug addition, each culture was incubated for forty-eight hours. The assay was terminated with the addition of cold TCA. The supernatant was discarded, and the plates were washed with tap water and air dried. Sulforhodamine B (SRB) solution was then added to each well. After staining, the bound stain was solubilized and the absorbance was read on an automated plate reader at a wavelength of 515 nm.
(§3) Using the absorbance measurements [time zero, (Tz), control growth, (C), and test growth in the presence of drug at the ten concentration levels (Ti)], the percentage growth was calculated at each of the drug concentrations levels. Percentage growth inhibition was calculated as:
Three dose response parameters were calculated for each experimental agent. […] The drug concentration resulting in total growth inhibition (TGI) was calculated from Ti=Tz. The LC50 (concentration of drug resulting in a 50% reduction in the measured protein at the end of the drug treatment as compared to that at the beginning) indicating a net loss of cells following treatment was calculated from [(Ti−Tz)/Tz]×100=−50.
Each of these parameters in Table 4 was calculated in a sulforhodamine B (SRB) assay, which provides a colorimetric measure of a compound's anti-cancer activity. SRB assays were performed with compounds of the invention in 22 different cell lines (shaded in light gray in Table 4), which represent nine different tumor panels (lung, melanoma, ovary, prostate, CNS, breast, pancreas colon and renal). […] Paclitaxel was added as a non-Na^+K^+-ATPase inhibitor control.

PCJ (Prostate) = experiment: SRB assay, PCJ; assay type: cell-based; details: Homo sapiens, 48 h
Experimental: as §1, §2, §3
(§4) [(Ti−Tz)/(C−Tz)]×100 for concentrations for which Ti>/=Tz
(§5) [(Ti−Tz)/Tz]×100 for concentrations for which Ti<Tz.
(§6) Three dose response parameters were calculated for each experimental agent. Growth inhibition of 50% (GI50) was calculated from [(Ti−Tz)/(C−Tz)]×100=50, which was the drug concentration resulting in a 50% reduction in the net protein increase (as measured by SRB staining) in control cells during the drug. The drug concentration resulting in total growth inhibition (TGI) was calculated from Ti=Tz. The LC50 (concentration of drug resulting in a 50% reduction in the measured protein at the end of the drug treatment as compared to that at the beginning) indicating a net loss of cells following treatment was calculated from [(Ti−Tz)/Tz]×100=−50.
(§7) Values were calculated for each of these three parameters when the level of activity was reached; however, if the effect was not reached or was exceeded, the value for that parameter was expressed as greater or less than the maximum or minimum concentration tested.
(§8) Table 4 summarizes results characterizing the effects of compound Nos. 120, 12, 61, 1, and 56 on GI50, which measures the cell growth inhibitory power of the compound, TGI, which measures cytostatic effect (TGI) and LC50, which signifies cytotoxic effect. Each of these parameters in Table 4 was calculated in a sulforhodamine B (SRB) assay, which provides a colorimetric measure of a compound's anti-cancer activity. SRB assays were performed with compounds of the invention in 22 different cell lines (shaded in light gray in Table 4), which represent nine different tumor panels (lung, melanoma, ovary, prostate, CNS, breast, pancreas colon and renal). Ouabain and digoxin were used as controls. Paclitaxel was added as a non-Na^+K^+-ATPase inhibitor control.

H160 (Lung) = experiment: SRB assay, H160; assay type: cell-based, human; details: 48 h
Experimental: as §1, §2, §3, §4, §5, §6, §7, §8

MCF7 (Breast) = experiment: SRB assay, MCF7; assay type: cell-based, human
Experimental: as §1, §2, §3, §4, §5, §6, §7, §8

HCT116 (Colon) = experiment: SRB assay, HCT116; assay type: cell-based; details: Homo sapiens
Experimental: as §1, §2, §3, §4, §5, §6, §7, §8

SF268 (CNS) = experiment: SRB assay, SF268; assay type: cell-based; details: Homo sapiens
Experimental: as §1, §2, §3, §4, §5, §6, §7, §8

[2] = test system: membrane androgen receptor; experiment: Membrane androgen receptor competition assay, DU145 cells; assay type: binding; details: 40 μM compound 30 minutes before 40 μM testosterone-HSA-FITC, FIGS. 3B, 3C
Description: To assess whether compounds of the invention were capable of binding directly to the membrane androgen receptor, a fluorescent-based assay was used to measure the ability of a given compound to preclude binding of a fluorescent mAR ligand (testosterone-HSA-FITC conjugates) to its receptor in LNCaP and DU145 cells (see Kampa, M et al, 2002, Faseb J 16:1429-1431, and PCT/U52007/007913).
The detection of membrane androgen receptors using fluorescent testosterone-serum albumin conjugates was performed as described by Kampa, M et al, 2002, Faseb J 16:1429-1431, with minor modifications. Briefly, LNCaP or DU145 prostate cancer cells were cultured on 0.1% gelatin-coated glass coverslips in RPMI 1640 medium supplemented with 2 mM L-Glutamine, 10% Fetal Bovine Serum and 1% Penicillin/Streptomycin for at least 48 hours until reaching 70% confluency. After a 24 hour serum starvation period, cells were incubated with 40 μM testosterone-HSA-FITC for 1 hour at room temperature. The cells were then washed three times with phosphate buffered saline (PBS) and fixed with 3.7% formaldehyde in PBS for 5 minutes at room temperature. Human serum albumin-FITC was used as a control for background staining. […] Coverslips were mounted on slides by using the Slow Fade/Antifade Reagent (Molecular Probes) and studied under a LEICA DMLB microscope, equipped with the appropriate fluorescence filters and a Leica DC 300F camera. Specimens were analyzed using the Leica FW4000 computer program.
To determine the capacity of a given compound to preclude binding of fluorescent testosterone-HSA conjugates (TAC) to the membrane androgen receptor, starved LNCaP or DU145 cells on coverslips prepared as described above were pre-treated with 40 μM of the indicated compound for 30 minutes prior to the addition of testosterone-HSA-FITC. […] Specimens were prepared and analyzed as described above. Compounds binding to the membrane androgen receptor preclude binding of fluorescent testosterone-HSA conjugates to their target and abolish membrane-specific fluorescence.

C[C@]12CCC(=NOCCn3cc(CN)nn3)CC1CCC1C2CC[C@]2(C)C(=O)CCC12 (stereo partly drawn) [Compound 31, (10S,13S)-3-(2-(4-(aminomethyl)-1H-1,2,3-triazol-1-yl)ethoxyimino)-10,13-dimethyltetradecahydro-1H-cyclopenta[a]phenanthren-17(2H)-one]
viability and/or cell proliferation of neoplastic cell lines [1]: reduced the viability and/or cell proliferation

C[C@@H]1O[C@@H](O[C@H]2C[C@@H](O)[C@]3(CO)[C@H]4[C@H](O)C[C@]5(C)[C@@H](C6=CC(=O)OC6)CC[C@]5(O)[C@@H]4CC[C@]3(O)C2)[C@H](O)[C@H](O)[C@H]1O [Ouabain, reference compound]
CC50 (PCJ (Prostate); read-out: LC50): 0.3 µM
GI50 (PCJ (Prostate); PCJ, SRB): < 0.08 µM
IC (TGI) (PCJ (Prostate); PCJ, SRB): 0.1 µM
TGI (H160 (Lung); H160, SRB): 0.1 µM
CC50 (H160 (Lung); Homo sapiens, read-out: LC50): 0.3 µM
GI50 (H160 (Lung); Homo sapiens, H160, SRB): < 0.08 µM
CC50 (MCF7 (Breast); Homo sapiens, MCF7, 48 h, read-out: LC50): 0.3 µM
GI50 (MCF7 (Breast); Homo sapiens, MCF7, SRB, 48 h): < 0.08 µM
TGI (MCF7 (Breast); MCF7, SRB, 48 h): 0.2 µM
CC50 (HCT116 (Colon); HCT-116, 48 h, read-out: LC50): > 50 µM
GI50 (HCT116 (Colon); HCT-116, HCT116, SRB, 48 h): < 0.08 µM
IC (TGI) (HCT116 (Colon); HCT-116, HCT116, SRB, 48 h): 4.5 µM
CC50 (SF268 (CNS); SF-268, 48 h, read-out: LC50): 0.3 µM
GI50 (SF268 (CNS); SF-268, SF268, SRB, 48 h, read-out: GI50): < 0.08 µM
IC (TGI) (SF268 (CNS); SF-268, SF268, SRB, 48 h, read-out: TGI): 0.1 µM

C[C@]12CC[C@H](O)C[C@H]1CC[C@@H]1[C@@H]2CC[C@]2(C)[C@@](O)(c3ccoc3)CC[C@]12O [rostafuroxin, reference compound]
membrane fluorescence of TAC-FITC after pre-treatment (binding to mAR precluded) [2]: failed to block binding of TAC-FITC to mAR
